{"source": "the RepoRT retention time repository (doi:10.1021/acs.analchem.1c00972)", "conditions_in_all_cases": "stereoisomer not certain", "key": {"[1]": {"assay": "RP, Phenomenex Synergi Polar-RP, 100 × 3 mm, 2.5 µm, 40 °C, 0.4 mL/min, estimated dead time 1.1 min; A: water + 1 mM ammonium fluoride; B: methanol + 1 mM ammonium fluoride; C: acetonitrile; D: 50% isopropanol + 50% acetone; gradient (min/%B/%C/%D) 0/5/0/0 2/5/0/0 8/95/0/0 12/80/15/0 19/25/70/0 19.5/0/25/70 21.5/0/25/70 22.5/0/25/0 23/5/0/0"}, "[2]": {"assay": "RP, Waters ACQUITY UPLC BEH C18, 100 × 1 mm, 1.7 µm, 50 °C, 0.3 mL/min, estimated dead time 0.17 min; A: water + 0.1% formic acid + 20 mM ammonium formate; B: methanol + 0.1% formic acid + 20 mM ammonium formate; gradient (min/%B) 0/0 15/100 21/100 22/0 30/0"}, "[3]": {"assay": "RP, Waters ACQUITY UPLC BEH C18, 100 × 1 mm, 1.7 µm, 50 °C, 0.3 mL/min, estimated dead time 0.17 min; A: water + 10 mM ammonium bicarbonate; B: 10% water + 90% methanol + 10 mM ammonium bicarbonate; gradient (min/%B) 0/0 15/100 21/100 22/0 30/0"}}}
{"compound": "O=C(Nc1ccc(Cl)c(Cl)c1)c1cc(Cl)cc(Cl)c1O", "note": "[Tetrachlorosalicylanilide]", "values": [{"measurement": "LC retention time", "setting": "[1]", "value": 10.2, "unit": "min"}, {"measurement": "LC retention time", "setting": "[2]", "value": 17.7, "unit": "min"}, {"measurement": "LC retention time", "setting": "[3]", "value": 14.9, "unit": "min"}]}
{"compound": "CCCCCCCCCCCCCCOS(=O)(=O)O", "note": "[Tetradecylsulfate]", "values": [{"measurement": "LC retention time", "setting": "[1]", "value": 9.97, "unit": "min"}, {"measurement": "LC retention time", "setting": "[2]", "value": 17.2, "unit": "min"}, {"measurement": "LC retention time", "setting": "[3]", "value": 17.4, "unit": "min"}]}
